Laboratory results published in the supplement of paper PMC10331698.
± gives the standard deviation of the averaged measurements.

What was measured:
Experiment in all cases: level (log10 ratio to DMSO vehicle control); higher = higher biomarker level / cell amount than vehicle control
[1] = compound: O=S(=O)(O)CCC(F)(F)C(F)(F)C(F)(F)C(F)(F)C(F)(F)C(F)(F)F [6:2 Fluorotelomer sulfonic acid]; details: in DMSO
Procedure: (§1)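 BioMAP Diversity Plus panel of 12 human primary cell co-culture systems (3C, 4H, LPS, SAg, BT, BF4T, BE3C, CASM3C, HDF3CGF, KF3CT, MyoF, Mphg). Compounds were added 1 h before stimulation and left for 24 h (MyoF 48 h; BT 72 h for soluble read-outs or 6 d for IgG). Biomarkers were read by ELISA, cytotoxicity by SRB, PBMC viability and proliferation by Alamar Blue. Each well value was divided by the mean of 8 DMSO control wells on the same plate and log10 transformed; duplicate blinded samples were tested at 4 concentrations.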

[2] = compound: FC(F)(F)C(F)(F)C(F)(F)CC1CO1 [1H,1H-Heptafluorobutyl epoxide]; details: in DMSO
Procedure: as §1

[3] = compound: NS(=O)(=O)C(F)(F)C(F)(F)C(F)(F)C(F)(F)C(F)(F)C(F)(F)F [Perfluorohexanesulfonamide]; details: in DMSO
Procedure: as §1

[4] = compound: O=S(=O)(O)C(F)(F)C(F)(F)C(F)(F)C(F)(F)C(F)(F)C(F)(F)C(F)(F)C(F)(F)C(F)(F)C(F)(F)F [Sodium perfluorodecanesulfonate]; details: in DMSO
Procedure: as §1

[5] = compound: NC(=O)C(F)(F)C(F)(F)C(F)(F)C(F)F; details: in DMSO
Procedure: as §1

Heptafluorobutyl iodide = compound: FC(F)(F)C(F)(F)C(F)(F)CI [Heptafluorobutyl iodide]; details: in DMSO
Procedure: as §1

[6] = compound: O=C(O)C=CC(F)(C(F)(F)F)C(F)(F)F [3-(Perfluoroisopropyl)-2-propenoic acid]; details: in DMSO
Procedure: as §1

[7] = compound: FC(F)(F)C(F)(F)C(F)(F)C(F)(F)C(F)(F)C(F)(F)CC1CO1 [3-(Perfluorohexyl)-1,2-epoxypropane]; details: in DMSO
Procedure: as §1

[8] = compound: O=C(O)C(F)(F)C(F)(F)C(F)(F)C(F)(F)C(F)(F)C(F)(F)C(F)(F)C(F)(F)C(F)(F)C(F)F [11-H-Perfluoroundecanoic acid]; details: in DMSO
Procedure: as §1

[9] = compound: FC(F)(F)C(F)(F)C(F)(F)C(F)(F)C(F)(F)C(F)(F)C(F)(F)I [1-Iodopentadecafluoroheptane]; details: in DMSO
Procedure: as §1

[10] = compound: O=S(=O)(Cl)C(F)(F)C(F)(F)C(F)(F)C(F)(F)C(F)(F)C(F)(F)C(F)(F)C(F)(F)F [Perfluoro-1-octanesulfonyl chloride]; details: in DMSO
Procedure: as §1

[11] = compound: C=CC(=O)OCC(F)(F)C(F)(F)C(F)(F)COC(=O)C=C [1H,1H,5H,5H-Perfluoro-1,5-pentanediol diacrylate]; details: 6700 nM; in DMSO
Procedure: as §1

Octafluoroadipamide = compound: NC(=O)C(F)(F)C(F)(F)C(F)(F)C(F)(F)C(N)=O [Octafluoroadipamide]; details: in DMSO
Procedure: as §1

[12] = compound: FC(F)(F)C(F)(F)CNCC(F)(F)C(F)(F)F [Bis(1H,1H-perfluoropropyl)amine]; details: in DMSO
Procedure: as §1

Hexafluoroamylene glycol = compound: OCC(F)(F)C(F)(F)C(F)(F)CO [Hexafluoroamylene glycol]; details: in DMSO
Procedure: as §1

[13] = compound: C=C(C)C(=O)OCCC(F)(F)C(F)(F)C(F)(F)C(F)(F)C(F)(F)C(F)(F)F [6:2 Fluorotelomer methacrylate]; details: in DMSO
Procedure: as §1

Nonafluoropentanamide = compound: NC(=O)C(F)(F)C(F)(F)C(F)(F)C(F)(F)F [Nonafluoropentanamide]; details: in DMSO
Procedure: as §1

[14] = compound: COC(=O)C(F)(F)C(F)(F)OC(F)(C(F)(F)F)C(F)(F)OC(F)=C(F)F [Methyl perfluoro(3-(1-ethenyloxypropan-2-yloxy)propanoate)]; details: in DMSO
Procedure: as §1

[15] = compound: O=S(=O)(F)C(F)(F)C(F)(F)C(F)(F)C(F)(F)C(F)(F)C(F)(F)C(F)(F)C(F)(F)F [Perfluorooctanesulfonyl fluoride]; details: in DMSO
Procedure: as §1

Test System: MyoF:Decorin
- level (log10) ([1]; 6700 nM): 0.0105 ± 0.0035
- level (log10) ([1]; 20000 nM): 0.0015 ± 0.00071
- level (log10) ([1]; 60000 nM): 0.0435 ± 0.0021
- level (log10) ([2]; 6700 nM): -0.01 ± 0.014
- level (log10) ([2]; 20000 nM): -0.009 ± 0.028
- level (log10) ([2]; 60000 nM): 0.009 ± 0.035
- level (log10) ([3]; 6700 nM): 0.0325 ± 0.076
- level (log10) ([3]; 20000 nM): -0.0095 ± 0.1
- level (log10) ([3]; 60000 nM): -0.03 ± 0.054
- level (log10) ([4]; 1500 nM): -0.0285 ± 0.016
- level (log10) ([4]; 4400 nM): 0.013 ± 0.0099
- level (log10) ([4]; 13000 nM): -0.0025 ± 0.016
- level (log10) ([4]; 40000 nM): 0.034
- level (log10) ([5]; 6700 nM): 0.012 ± 0.0085
- level (log10) ([5]; 20000 nM): -0.0035 ± 0.03
- level (log10) ([5]; 60000 nM): -0.009 ± 0.0085
- level (log10) (Heptafluorobutyl iodide; 6700 nM): 0.0045 ± 0.016
- level (log10) (Heptafluorobutyl iodide; 20000 nM): -0.016 ± 0.0071
- level (log10) (Heptafluorobutyl iodide; 60000 nM): 0.005 ± 0.0042
- level (log10) ([6]; 6700 nM): -0.0045 ± 0.021
- level (log10) ([6]; 20000 nM): 0.004 ± 0.0014
- level (log10) ([6]; 60000 nM): 0.0225 ± 0.029
- level (log10) ([7]; 6700 nM): 0.001 ± 0.03
- level (log10) ([7]; 20000 nM): 0.003
- level (log10) ([7]; 60000 nM): 0.0265 ± 0.035
- level (log10) ([8]; 6700 nM): 0.0415 ± 0.077
- level (log10) ([8]; 20000 nM): 0.052 ± 0.031
- level (log10) ([9]; 6700 nM): 0.0365 ± 0.049
- level (log10) ([9]; 20000 nM): 0.0215 ± 0.029
- level (log10) ([10]; 6700 nM): -0.007 ± 0.0071
- level (log10) ([10]; 20000 nM): 0.014 ± 0.033
- level (log10) ([10]; 60000 nM): 0.09 ± 0.085
- level (log10) [11]: -0.0325 ± 0.0064
- level (log10) (Octafluoroadipamide; 6700 nM): 0.0105 ± 0.035
- level (log10) (Octafluoroadipamide; 20000 nM): -0.0025 ± 0.0092
- level (log10) (Octafluoroadipamide; 60000 nM): 0.017 ± 0.028
- level (log10) ([12]; 6700 nM): -0.005 ± 0.0071
- level (log10) ([12]; 20000 nM): -0.0065 ± 0.021
- level (log10) ([12]; 60000 nM): 0.015 ± 0.034
- level (log10) (Hexafluoroamylene glycol; 6700 nM): 0.001 ± 0.0042
- level (log10) (Hexafluoroamylene glycol; 20000 nM): -0.01 ± 0.0042
- level (log10) (Hexafluoroamylene glycol; 60000 nM): -0.015 ± 0.013
- level (log10) ([13]; 6700 nM): -0.0045 ± 0.033
- level (log10) ([13]; 20000 nM): 0.0325 ± 0.028
- level (log10) ([13]; 60000 nM): 0.015 ± 0.0042
- level (log10) (Nonafluoropentanamide; 6700 nM): -0.0155 ± 0.0078
- level (log10) (Nonafluoropentanamide; 20000 nM): 0.013 ± 0.0028
- level (log10) (Nonafluoropentanamide; 60000 nM): -0.0045 ± 0.00071
- level (log10) ([14]; 6700 nM): 0.0595 ± 0.022
- level (log10) ([14]; 20000 nM): 0.07 ± 0.017
- level (log10) ([15]; 6700 nM): 0.001 ± 0.011
- level (log10) ([15]; 20000 nM): -0.013 ± 0.0042
- level (log10) ([15]; 60000 nM): 0.016 ± 0.0057

Test System: BE3C:PAI-I
- level (log10) ([1]; 6700 nM): -0.005 ± 0.0014
- level (log10) ([1]; 20000 nM): 0.011 ± 0.0085
- level (log10) ([1]; 60000 nM): 0.0435 ± 0.016
- level (log10) ([2]; 6700 nM): 0.0035 ± 0.0092
- level (log10) ([2]; 20000 nM): 0.0075 ± 0.005
- level (log10) ([2]; 60000 nM): 0.0165 ± 0.025
- level (log10) ([3]; 6700 nM): -0.055 ± 0.062
- level (log10) ([3]; 20000 nM): -0.087 ± 0.079
- level (log10) ([3]; 60000 nM): -0.165 ± 0.068
- level (log10) ([4]; 1500 nM): -0.0925 ± 0.036
- level (log10) ([4]; 4400 nM): -0.106 ± 0.022
- level (log10) ([4]; 13000 nM): -0.26 ± 0.058
- level (log10) ([4]; 40000 nM): -0.406 ± 0.013
- level (log10) ([5]; 6700 nM): 0.0065 ± 0.0064
- level (log10) ([5]; 20000 nM): -0.0055 ± 0.0035
- level (log10) ([5]; 60000 nM): 0 ± 0.0028
- level (log10) (Heptafluorobutyl iodide; 6700 nM): -0.018 ± 0.017
- level (log10) (Heptafluorobutyl iodide; 20000 nM): -0.027 ± 0.025
- level (log10) (Heptafluorobutyl iodide; 60000 nM): -0.0085 ± 0.016
- level (log10) ([6]; 6700 nM): 0.0105 ± 0.00071
- level (log10) ([6]; 20000 nM): -0.003 ± 0.0042
- level (log10) ([6]; 60000 nM): 0.0065 ± 0.023
- level (log10) ([7]; 6700 nM): -0.003 ± 0.0014
- level (log10) ([7]; 20000 nM): -0.006 ± 0.0028
- level (log10) ([7]; 60000 nM): 0.013 ± 0.0099
- level (log10) ([8]; 6700 nM): -0.082 ± 0.018
- level (log10) ([8]; 20000 nM): -0.367 ± 0.047
- level (log10) ([9]; 6700 nM): -0.0185 ± 0.047
- level (log10) ([9]; 20000 nM): -0.0245 ± 0.037
- level (log10) ([10]; 6700 nM): 0.0265 ± 0.011
- level (log10) ([10]; 20000 nM): 0.0055 ± 0.019
- level (log10) ([10]; 60000 nM): -0.416 ± 0.054
- level (log10) [11]: 0.0535 ± 0.0064
- level (log10) (Octafluoroadipamide; 6700 nM): -0.0145 ± 0.0021
- level (log10) (Octafluoroadipamide; 20000 nM): -0.0295 ± 0.025
- level (log10) (Octafluoroadipamide; 60000 nM): 0 ± 0.059
- level (log10) ([12]; 6700 nM): -0.0395 ± 0.00071
- level (log10) ([12]; 20000 nM): -0.022 ± 0.0057
- level (log10) ([12]; 60000 nM): -0.0075 ± 0.023
- level (log10) (Hexafluoroamylene glycol; 6700 nM): -0.0205 ± 0.0021
- level (log10) (Hexafluoroamylene glycol; 20000 nM): -0.017 ± 0.0042
- level (log10) (Hexafluoroamylene glycol; 60000 nM): 0.0115 ± 0.0021
- level (log10) ([13]; 6700 nM): -0.0115 ± 0.037
- level (log10) ([13]; 20000 nM): -0.019 ± 0.034
- level (log10) ([13]; 60000 nM): -0.016 ± 0.033
- level (log10) (Nonafluoropentanamide; 6700 nM): -0.087 ± 0.033
- level (log10) (Nonafluoropentanamide; 20000 nM): -0.137 ± 0.052
- level (log10) (Nonafluoropentanamide; 60000 nM): -0.117 ± 0.044
- level (log10) ([14]; 6700 nM): 0.0185 ± 0.019
- level (log10) ([14]; 20000 nM): 0.037 ± 0.0071
- level (log10) ([15]; 6700 nM): -0.021 ± 0.0099
- level (log10) ([15]; 20000 nM): -0.022 ± 0.052
- level (log10) ([15]; 60000 nM): -0.0135 ± 0.056
